Test results: US11116804B2, “Modulation of the gut microbiome to treat mental disorders or diseases of the central nervous system” (Holobiome, Inc., priority 2016, dated 2021)
“Also recorded” adds a separate entry of the source.

How the values were obtained:
[1] = test system: E. gabavorous KLE1738; experiment: Growth induction of E. gabavorous by compounds spotted on FAAy plates; type: cell-based, Evtepia gabavorous; conditions: 5 μL of stock spotted on FAAy plates spread with E. gabavorous, anaerobic, one week
Method: Stocks of each compound (purchased from Sigma, excluding the ATCC Mineral and Vitamin mixes) were prepared dependent on solubility in water at the concentrations shown in FIG. 2G. Five μL of the stocks were then spotted on FAAy plates spread with E. gabavorous, and incubated anaerobically for one week, and any growth was observed.

[2] = in mice; cited from earlier work
[3] = in rodents; cited from earlier work

SMILES	growth induction of E. gabavorous by spotted compound [1]	half-life [2]	brain efflux rate relative to influx rate [3]
C[C@@H](O)[C@H](N)C(=O)O [threonine]	only GABA caused growth induction		
C[C@H](N)C(=O)O [alanine]	only GABA caused growth induction		
O=C(O)CCC(=O)O [succinic acid]	only GABA caused growth induction		
NC(=O)CC[C@H](N)C(=O)O [glutamine]	only GABA caused growth induction		
O=C(O)CC(=O)O [malonic acid]	only GABA caused growth induction		
CC(O)C(=O)O (stereo not shown) [lactic acid]	only GABA caused growth induction		
NCCCC(=O)O [GABA, gamma-aminobutyric acid]	capable of inducing growth of E. gabavorous KLE1738; also recorded: caused growth induction; also recorded: induced growth	17 min	17 times
CC(C)[C@H](N)C(=O)O [valine]	only GABA caused growth induction		
